Assay: xn = mol fraction of the nth substance listed
Conditions: 100 kPa, Liquid; for speed of sound: Sing-around technique in a fixed-path interferometer; for mass density: Vibrating tube method

Cc1ccccc1Cl [2-chlorotoluene] + C1CCCCC1
Conditions | mass density, 298.15 K [kg/m3] | mass density, 303.15 K [kg/m3] | mass density, 308.15 K [kg/m3] | speed of sound, 298.15 K [m/s] | speed of sound, 303.15 K [m/s] | speed of sound, 308.15 K [m/s]
x1 = 0.1098 | 808.15 | 803.38 | 798.58 | 1251.3 | 1227.6 | 1204.7
x1 = 0.1437 | 818.67 | 813.9 | 809.09 | 1251 | 1227.7 | 1205
x1 = 0.1987 | 835.72 | 830.93 | 826.11 | 1251.1 | 1228.2 | 1205.9
x1 = 0.2356 | 847.14 | 842.33 | 837.5 | 1251.5 | 1228.8 | 1206.7
x1 = 0.2874 | 863.12 | 858.3 | 853.47 | 1252.4 | 1230 | 1208.1
x1 = 0.3256 | 874.88 | 870.06 | 865.22 | 1253.4 | 1231.2 | 1209.5
x1 = 0.3876 | 893.92 | 889.08 | 884.22 | 1255.3 | 1233.6 | 1212.2
x1 = 0.4135 | 901.85 | 897.01 | 892.15 | 1256.2 | 1234.8 | 1213.4
x1 = 0.4834 | 923.2 | 918.34 | 913.47 | 1259.3 | 1238.4 | 1217.4
x1 = 0.5243 | 935.64 | 930.78 | 925.9 | 1261.4 | 1240.7 | 1220
x1 = 0.5763 | 951.42 | 946.54 | 941.65 | 1264.3 | 1244 | 1223.6
x1 = 0.6143 | 962.9 | 958.02 | 953.13 | 1266.5 | 1246.6 | 1226.5
x1 = 0.6654 | 978.29 | 973.4 | 968.5 | 1269.9 | 1250.3 | 1230.7
x1 = 0.7154 | 993.29 | 988.4 | 983.48 | 1273.4 | 1254.3 | 1235
x1 = 0.7654 | 1008.2 | 1003.3 | 998.42 | 1277.2 | 1258.4 | 1239.6
x1 = 0.8165 | 1023.4 | 1018.5 | 1013.6 | 1281.3 | 1262.9 | 1244.4
x1 = 0.8324 | 1028.1 | 1023.2 | 1018.3 | 1282.6 | 1264.3 | 1246
x1 = 0.8965 | 1047.1 | 1042.2 | 1037.3 | 1288.4 | 1270.3 | 1252.3

Reference: the NIST ThermoML archive (doi:10.1016/j.jct.2014.06.030)
